For experiment [1], the system named is S. mutans ATCC 25175. Nature of the experiment: Disc diffusion assay (DDA). It is filed as cell-based, Streptococcus mutans. To be noted: 200 μg per disc, 48 hours at 37° C., 5% carbon dioxide, single plates. From the text: (a) staphylococci. The Staphylococcus aureus strain used was ATCC 29213. S. aureus and other staphylococci are common causes of a wide range of skin, skin structure and wound infections; S. aureus is also known to exacerbate eczema. The ATCC 29213 strain is known to be susceptible to beta-lactam antibiotics such as methicillin. The Staphylococcus epidermidis strain used was NCTC 11047. Staph. epidermidis forms part of the resident flora of skin and is an opportunistic pathogen which can cause biofilms to grow for instance on plastic surgical implants such as catheters. Unless otherwise stated, the staphylococci were cultured and maintained on Mueller-Hinton Medium (agar and broth) at pH 7.2; cultures were incubated aerobically at 37° C. for 19-20 hours, at pH 7 (±0.2). (b) C. striatum NCTC 764. Corynebacterium striatum is closely related to organisms (aerobic diphtheroids of the genus Corynebacterium) that cause body odour. It was cultured and maintained on Mueller-Hinton medium (agar and broth). All cultures were incubated aerobically at 37° C. for 72 hours, at pH 7 (±0.2). (c) streptococci. The strains tested were S. mutans ATCC 25175 and S. pyogenes ATCC 12344. […] The diameter of this zone of “inhibition” was measured using a ProtoCOL™ automated zone sizer (Synbiosis, Cambridge, UK). […]
(A growth-free zone around the sample is the usual read-out of agar diffusion tests.)

Experiment [2] has as its system S. epidermidis NCTC 11047. Nature of the experiment: Disc diffusion assay (DDA). It is filed as cell-based, Staphylococcus epidermidis. To be noted: 200 μg per disc; Mueller-Hinton agar pH 7.0; overnight at 37° C. in air. From the text:
(a) staphylococci. The Staphylococcus aureus strain used was ATCC 29213. S. aureus and other staphylococci are common causes of a wide range of skin, skin structure and wound infections; S. aureus is also known to exacerbate eczema. The ATCC 29213 strain is known to be susceptible to beta-lactam antibiotics such as methicillin. The Staphylococcus epidermidis strain used was NCTC 11047. Staph. epidermidis forms part of the resident flora of skin and is an opportunistic pathogen which can cause biofilms to grow for instance on plastic surgical implants such as catheters. Unless otherwise stated, the staphylococci were cultured and maintained on Mueller-Hinton Medium (agar and broth) at pH 7.2; cultures were incubated aerobically at 37° C. for 19-20 hours, at pH 7 (±0.2). (b) C. striatum NCTC 764. […]
A sterile paper disc was impregnated with a sample of the test compound in a suitable solvent and 30 minutes allowed for the solvents to evaporate (where possible). […] The diameter of this zone of “inhibition” was measured using a ProtoCOL™ automated zone sizer (Synbiosis, Cambridge, UK). […]
Example 8 was repeated (except for the supplemented DDA assays), using S. aureus ATCC 29213 as the test organism. […] In the DDA assays, 200 μg is of each compound was loaded onto each disc: the culture medium was Mueller-Hinton agar at pH 7.0, and results were recorded after overnight incubation at 37° C. in air. […]

The values that follow come from patent US20120270935A1, “FORMULATIONS” (priority 2009, published 2012).

Turning to `CC(=O)c1c([O-])c(C)c([O-])c2c1OC1=CC(=O)C(C(C)=O)C(=O)C12C.[Cu+2]` (stereo not drawn) [Copper usnate, copper (II) usnate], the results for the DDA zone diameter in experiment [1] and in experiment [2] were 32.4 mm and 25.7 ± 0.6 mm, respectively.

Consider `CC(=O)c1c(O)c(C)c(O)c2c1OC1=CC(=O)C(C(C)=O)C(=O)C12C` (stereo not drawn) [Usnic acid, 2,6-diacetyl-7,9-dihydroxy-8,9b-dimethyl-1,3(2H,9bh)-dibenzofurandione], for which, in experiment [1] (Streptococcus mutans, ATCC25175, read-out: DDA zone diameter), the zone of inhibition at 200 µg/disc was determined as 31.2 mm.
